Experimental data as given in ChEMBL document CHEMBL1201862, “PubChem BioAssay data set” (2004).
One block for each molecule: values may come before it. Activity calls are given as the source filed them.

Assays:
[1] = molecular target: T1, Sphingosine 1-phosphate receptor 4 (Homo sapiens, UniProt O95977); assay: Late stage fluorescence dose response cell-based screening assay for antagonists of the Sphingosine 1-Phosphate Receptor 4 (S1P4). [Related pubchem assays: 1524 (Confirmation screen (S1P4 antagonists).), 1510 (Primary screen (S1P4 antagonists).), 1853 (Summary AID (S1P4 antagonists).), 1692 (Dose response screen (S1P4 antagonists).)]; assay type: functional
T1 sequence (O95977 whole entry): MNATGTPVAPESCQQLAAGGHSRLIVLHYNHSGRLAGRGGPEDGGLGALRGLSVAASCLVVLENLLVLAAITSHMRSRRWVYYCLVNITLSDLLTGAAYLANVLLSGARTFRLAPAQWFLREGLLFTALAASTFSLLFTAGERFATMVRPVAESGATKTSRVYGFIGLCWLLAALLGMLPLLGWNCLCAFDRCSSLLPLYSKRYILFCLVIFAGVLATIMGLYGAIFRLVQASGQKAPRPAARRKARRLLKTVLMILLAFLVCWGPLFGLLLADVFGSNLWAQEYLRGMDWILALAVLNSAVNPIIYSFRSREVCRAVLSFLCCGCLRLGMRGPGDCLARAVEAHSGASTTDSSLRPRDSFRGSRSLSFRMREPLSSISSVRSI

[2] = Fluorescence-based cell-based high throughput dose response assay for inhibitors of the interaction of nucleotide-binding oligomerization domain containing 2 (NOD2) and the receptor-interacting serine-threonine kinase 2 (RIPK2).; assay type: functional; conditions: Homo sapiens
[3] = molecular target: Sphingosine 1-phosphate receptor 1 (Homo sapiens, UniProt P21453); assay type: functional;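 also: Tango beta-arrestin reporter U2OS cells stimulated with S1P near its EC80; inhibitor potency meaning antagonism of receptor activation by the natural agonist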
Sphingosine 1-phosphate receptor 1, sequence (P21453 whole entry): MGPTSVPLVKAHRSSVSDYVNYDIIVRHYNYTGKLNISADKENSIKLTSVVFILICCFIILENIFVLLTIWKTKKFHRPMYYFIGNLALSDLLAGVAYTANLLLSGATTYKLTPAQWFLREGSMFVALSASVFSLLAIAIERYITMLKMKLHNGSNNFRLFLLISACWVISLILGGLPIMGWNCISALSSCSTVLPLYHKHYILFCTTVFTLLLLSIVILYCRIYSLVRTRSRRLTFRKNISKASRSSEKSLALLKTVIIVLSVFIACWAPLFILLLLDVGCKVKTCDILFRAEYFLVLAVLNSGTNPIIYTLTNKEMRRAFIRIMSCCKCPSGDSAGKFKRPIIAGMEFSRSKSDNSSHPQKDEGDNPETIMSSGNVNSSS

[4] = molecular target: T2, Calpain-2 catalytic subunit (Sus scrofa, UniProt P43367); assay: pig calpain II inhibitor potency, dose response, biochemical, fluorogenic peptide substrate (AID 1420); assay type: functional
T2 sequence (P43367 whole entry): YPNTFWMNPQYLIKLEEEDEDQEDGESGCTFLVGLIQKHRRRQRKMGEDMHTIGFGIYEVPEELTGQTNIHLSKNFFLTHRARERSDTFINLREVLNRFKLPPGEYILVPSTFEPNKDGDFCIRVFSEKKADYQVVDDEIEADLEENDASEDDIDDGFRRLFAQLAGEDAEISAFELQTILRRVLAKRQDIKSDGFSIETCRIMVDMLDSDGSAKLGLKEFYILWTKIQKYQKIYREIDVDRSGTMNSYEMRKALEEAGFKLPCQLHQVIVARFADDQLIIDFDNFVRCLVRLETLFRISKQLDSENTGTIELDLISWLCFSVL

[5] = growth suppression of beta-catenin-knockout colon cells, dose response, cell-based, HCT116, human colon tumor (AID 1045); assay type: functional;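 also: HCT116 colon tumor cells with beta catenin knocked out; cells exposed to compound for 60 hours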
Bcl-2-related protein A1 = molecular target: T3, Bcl-2-related protein A1 (Mus musculus, UniProt Q07440); assay: Bfl-1 inhibitors blocking BH3 peptide binding, confirmation, biochemical, TR-FRET, mouse Bfl-1 (AID 621);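 also: TR-FRET binding of GST-Bfl-1 to FITC-labelled Bid peptide via terbium antibody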
T3 sequence (Q07440 whole entry): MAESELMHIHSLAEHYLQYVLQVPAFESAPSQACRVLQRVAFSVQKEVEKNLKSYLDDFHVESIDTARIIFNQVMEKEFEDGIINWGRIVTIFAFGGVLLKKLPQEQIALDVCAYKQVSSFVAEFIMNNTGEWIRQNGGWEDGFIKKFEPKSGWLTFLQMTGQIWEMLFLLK

14-3-3 protein gamma = 14-3-3 protein gamma (Homo sapiens, UniProt P61981); assay: modulators of 14-3-3 gamma client binding – dose response (AID 711); assay type: functional
14-3-3 protein gamma, sequence (P61981 whole entry): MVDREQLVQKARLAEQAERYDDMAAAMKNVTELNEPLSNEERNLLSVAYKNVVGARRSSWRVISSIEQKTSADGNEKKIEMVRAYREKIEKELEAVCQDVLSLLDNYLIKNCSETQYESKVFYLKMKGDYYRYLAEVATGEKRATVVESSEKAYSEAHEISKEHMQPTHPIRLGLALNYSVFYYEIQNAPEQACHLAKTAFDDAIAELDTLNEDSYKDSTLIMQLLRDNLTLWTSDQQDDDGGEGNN

Protein Rev = Protein Rev (Human immunodeficiency virus type 1 group M subtype B (isolate HXB2)(HIV-1), UniProt P04618); assay: inhibitors of Rev binding to RRE RNA, dose response, biochemical, fluorescence polarization, HIV-1 (AID 434976); parameters: species or system Human immunodeficiency virus 1
Protein Rev, sequence (P04618 whole entry, the tested form may be a part): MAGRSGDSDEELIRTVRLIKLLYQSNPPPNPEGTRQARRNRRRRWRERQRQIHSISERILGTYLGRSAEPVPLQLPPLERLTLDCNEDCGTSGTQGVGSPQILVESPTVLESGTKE

[6] = molecular target: T4, RNA-binding protein pos-1 (Caenorhabditis elegans, UniProt G5EF15); assay: inhibitors of POS-1/mex-3 RNA binding, dose response, biochemical, fluorescence polarization (AID 1964);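 also: purified POS-1 fused to maltose binding protein made in E. coli; potency of compounds blocking POS-1 binding to fluorescent RNA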
T4 sequence (G5EF15 whole entry): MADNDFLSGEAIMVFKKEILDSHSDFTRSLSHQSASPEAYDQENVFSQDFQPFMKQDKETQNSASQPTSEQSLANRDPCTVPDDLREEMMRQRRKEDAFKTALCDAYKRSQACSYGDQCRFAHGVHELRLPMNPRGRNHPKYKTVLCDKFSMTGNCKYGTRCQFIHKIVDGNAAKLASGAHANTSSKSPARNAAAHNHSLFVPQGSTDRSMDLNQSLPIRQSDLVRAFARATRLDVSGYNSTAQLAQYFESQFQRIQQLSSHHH

[7] = off-target signal loss in HeLa-CEM21 co-culture – HeLa F-luc CTL cells, cherry-picked, counter-screen for HIV-1 Env fusion inhibitor project, dose response (AID 652040); assay type: functional, cell-based;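 also: potency for signal decrease marking cytotoxic or nonspecific inhibition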
[8] = control 3'UTR Renilla luciferase suppression, dose response, counter-screen for Shn3 inhibitor project, cell-based, Clone20-Shn3RL, cherry-picked (AID 624133); assay type: functional
[9] = CEM21 lymphoblast cell cytotoxicity, dose response, cytotoxicity control for viral fusion inhibitor project, CellTiter-Glo luminescence, cherry-picked (AID 652042); assay type: functional, cell-based;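 also: potency for signal decrease meaning cytotoxicity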
[10] = THP-1 cell cytotoxicity, dose response, cytotoxicity control for Vif-APOBEC3G degradation inhibitor project, THP-1 cells (AID 1117359); assay type: functional; conditions: Human immunodeficiency virus 1, THP-1
Paired box protein Pax-8 = Paired box protein Pax-8 (Homo sapiens, UniProt Q06710); assay: inhibitors of PAX8-driven TPO luciferase reporter, dose response, RMG-I cells, cherry-pick (AID 687027); assay type: functional, cell-based;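 also: luciferase reporter driven by Pax8 target thyroperoxidase promoter measured by SteadyGlo luminescence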
Paired box protein Pax-8, sequence (Q06710 whole entry): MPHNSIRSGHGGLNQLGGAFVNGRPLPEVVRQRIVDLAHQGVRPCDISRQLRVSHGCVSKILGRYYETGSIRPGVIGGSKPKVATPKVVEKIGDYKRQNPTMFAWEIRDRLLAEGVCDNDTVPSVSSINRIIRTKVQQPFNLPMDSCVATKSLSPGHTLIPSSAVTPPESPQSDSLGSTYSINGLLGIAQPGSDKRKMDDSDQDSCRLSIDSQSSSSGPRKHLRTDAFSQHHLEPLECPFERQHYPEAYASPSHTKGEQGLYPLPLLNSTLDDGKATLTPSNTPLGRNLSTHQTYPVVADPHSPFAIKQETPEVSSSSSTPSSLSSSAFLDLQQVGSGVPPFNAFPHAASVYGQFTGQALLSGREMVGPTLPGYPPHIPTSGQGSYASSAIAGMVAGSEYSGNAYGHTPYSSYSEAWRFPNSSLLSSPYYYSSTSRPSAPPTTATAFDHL

[11] = molecular target: Leukocyte tyrosine kinase receptor (Homo sapiens, UniProt P29376); assay: Navigating the Kinome. Panel member name: LTK; assay type: functional
Leukocyte tyrosine kinase receptor, sequence (P29376 whole entry): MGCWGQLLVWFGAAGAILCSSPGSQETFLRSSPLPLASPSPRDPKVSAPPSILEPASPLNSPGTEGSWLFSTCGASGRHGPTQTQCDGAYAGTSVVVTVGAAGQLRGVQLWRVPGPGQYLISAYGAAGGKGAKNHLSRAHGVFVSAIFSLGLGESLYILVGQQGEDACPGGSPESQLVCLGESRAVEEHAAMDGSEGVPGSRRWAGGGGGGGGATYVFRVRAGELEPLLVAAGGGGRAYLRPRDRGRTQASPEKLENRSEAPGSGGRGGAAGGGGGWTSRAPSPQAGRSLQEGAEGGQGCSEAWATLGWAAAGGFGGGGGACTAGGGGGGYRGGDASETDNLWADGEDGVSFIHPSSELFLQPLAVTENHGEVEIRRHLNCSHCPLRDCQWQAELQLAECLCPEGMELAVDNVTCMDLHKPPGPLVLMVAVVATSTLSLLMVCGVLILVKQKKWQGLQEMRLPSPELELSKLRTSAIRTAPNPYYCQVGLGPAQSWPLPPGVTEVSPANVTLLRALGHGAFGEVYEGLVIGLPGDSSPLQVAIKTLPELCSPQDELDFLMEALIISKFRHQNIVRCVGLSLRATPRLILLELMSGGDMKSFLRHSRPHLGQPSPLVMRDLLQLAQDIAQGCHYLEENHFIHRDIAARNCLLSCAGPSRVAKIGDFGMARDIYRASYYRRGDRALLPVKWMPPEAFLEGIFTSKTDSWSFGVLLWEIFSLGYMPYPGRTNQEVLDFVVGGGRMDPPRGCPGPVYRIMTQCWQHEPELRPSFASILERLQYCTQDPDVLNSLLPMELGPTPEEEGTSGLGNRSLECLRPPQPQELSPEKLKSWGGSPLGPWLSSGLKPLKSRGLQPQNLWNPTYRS

Activin receptor type-1 = Activin receptor type-1 (Homo sapiens, UniProt Q04771); assay: Navigating the Kinome. Panel member name: ACVR1; assay type: functional
Activin receptor type-1, sequence (Q04771 whole entry): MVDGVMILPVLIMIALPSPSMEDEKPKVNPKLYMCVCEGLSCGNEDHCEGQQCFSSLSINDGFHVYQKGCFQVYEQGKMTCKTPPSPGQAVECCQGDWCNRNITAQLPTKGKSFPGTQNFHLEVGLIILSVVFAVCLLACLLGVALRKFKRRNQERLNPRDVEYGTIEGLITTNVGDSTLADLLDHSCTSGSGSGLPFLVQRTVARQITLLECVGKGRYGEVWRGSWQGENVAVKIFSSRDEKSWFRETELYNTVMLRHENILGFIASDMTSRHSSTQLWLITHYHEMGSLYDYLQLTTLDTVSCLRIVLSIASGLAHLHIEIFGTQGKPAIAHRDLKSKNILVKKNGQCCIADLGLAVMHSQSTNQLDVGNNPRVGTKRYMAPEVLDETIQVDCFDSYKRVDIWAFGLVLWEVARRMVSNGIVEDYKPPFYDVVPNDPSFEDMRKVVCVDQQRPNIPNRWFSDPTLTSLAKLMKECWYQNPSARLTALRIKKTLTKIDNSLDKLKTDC

[12] = molecular target: Non-receptor tyrosine-protein kinase TYK2 (Homo sapiens, UniProt P29597); assay type: functional
Non-receptor tyrosine-protein kinase TYK2, sequence (P29597 whole entry): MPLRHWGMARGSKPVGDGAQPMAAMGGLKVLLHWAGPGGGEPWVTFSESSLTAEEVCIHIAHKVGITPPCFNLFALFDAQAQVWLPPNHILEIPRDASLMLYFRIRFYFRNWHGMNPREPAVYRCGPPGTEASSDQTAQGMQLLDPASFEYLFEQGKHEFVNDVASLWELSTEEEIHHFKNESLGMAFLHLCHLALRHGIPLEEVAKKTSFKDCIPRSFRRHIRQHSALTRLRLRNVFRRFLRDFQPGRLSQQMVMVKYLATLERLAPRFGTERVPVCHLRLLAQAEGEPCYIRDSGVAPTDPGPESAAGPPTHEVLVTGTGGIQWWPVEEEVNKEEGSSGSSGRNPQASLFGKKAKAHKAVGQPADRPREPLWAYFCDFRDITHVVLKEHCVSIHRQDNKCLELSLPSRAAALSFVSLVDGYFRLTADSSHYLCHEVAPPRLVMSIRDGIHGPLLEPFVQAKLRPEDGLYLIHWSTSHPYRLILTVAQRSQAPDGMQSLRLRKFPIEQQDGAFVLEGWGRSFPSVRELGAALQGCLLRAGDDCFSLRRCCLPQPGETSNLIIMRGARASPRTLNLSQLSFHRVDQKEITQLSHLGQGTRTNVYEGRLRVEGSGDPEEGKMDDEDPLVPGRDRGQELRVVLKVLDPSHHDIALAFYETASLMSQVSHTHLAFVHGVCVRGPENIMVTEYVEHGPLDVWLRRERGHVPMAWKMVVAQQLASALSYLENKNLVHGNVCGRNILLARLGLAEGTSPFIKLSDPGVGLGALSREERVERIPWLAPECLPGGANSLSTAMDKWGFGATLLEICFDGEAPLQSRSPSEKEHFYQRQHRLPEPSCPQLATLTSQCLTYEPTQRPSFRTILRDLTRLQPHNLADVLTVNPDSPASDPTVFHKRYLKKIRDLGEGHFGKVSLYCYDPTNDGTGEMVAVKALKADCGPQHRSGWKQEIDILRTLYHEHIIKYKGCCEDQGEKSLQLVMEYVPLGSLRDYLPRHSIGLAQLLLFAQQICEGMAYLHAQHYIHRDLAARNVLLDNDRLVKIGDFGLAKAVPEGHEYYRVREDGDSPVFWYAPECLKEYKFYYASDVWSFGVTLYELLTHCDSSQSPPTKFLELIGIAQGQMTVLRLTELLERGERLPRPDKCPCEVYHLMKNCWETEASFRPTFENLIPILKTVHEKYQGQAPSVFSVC

[13] = molecular target: Mitogen-activated protein kinase 1 (Homo sapiens, UniProt P28482); assay type: functional
Misshapen-like kinase 1 = Misshapen-like kinase 1 (Homo sapiens, UniProt Q8N4C8); assay type: functional;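 also: kinome panel screen with MINK as the panel member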
[14] = molecular target: Leucine-rich repeat serine/threonine-protein kinase 2 (Homo sapiens, UniProt Q5S007); assay type: functional;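 also: value from a broad kinome-wide panel profiling study in which LRRK2 was one of the kinases tested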
[15] = molecular target: MAP kinase-interacting serine/threonine-protein kinase 2 (Homo sapiens, UniProt Q9HBH9); assay type: functional
[16] = molecular target: Tyrosine-protein kinase Fer (Homo sapiens, UniProt P16591); assay type: functional;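 also: FER tested as one member of a kinome panel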
[17] = molecular target: Cyclin-dependent kinase 7 (Homo sapiens, UniProt P50613); assay type: functional;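 also: value comes from a kinome-wide kinase profiling panel in which CDK7 is one member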
Cyclin-dependent kinase 7, sequence (P50613 whole entry, the tested form may be a part): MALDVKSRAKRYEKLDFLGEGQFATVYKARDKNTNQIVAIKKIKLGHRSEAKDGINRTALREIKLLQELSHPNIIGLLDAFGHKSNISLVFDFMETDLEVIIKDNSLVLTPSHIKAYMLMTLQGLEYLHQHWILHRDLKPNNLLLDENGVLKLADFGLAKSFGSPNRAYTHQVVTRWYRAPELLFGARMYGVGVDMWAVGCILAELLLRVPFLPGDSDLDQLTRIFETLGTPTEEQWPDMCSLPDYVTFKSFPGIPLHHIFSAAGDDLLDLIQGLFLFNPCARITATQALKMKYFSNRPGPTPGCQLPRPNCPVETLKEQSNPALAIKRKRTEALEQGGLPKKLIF

LIM domain kinase 1 = LIM domain kinase 1 (Homo sapiens, UniProt P53667); assay: Navigating the Kinome. Panel member name: LIMK1; assay type: functional
[18] = molecular target: Calcium/calmodulin-dependent protein kinase type II subunit alpha (Homo sapiens, UniProt Q9UQM7); assay: Navigating the Kinome. Panel member name: CAMK2A; assay type: functional
[19] = molecular target: Mitogen-activated protein kinase kinase kinase kinase 5 (Homo sapiens, UniProt Q9Y4K4); assay type: functional;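 also: measured as one member of a kinome-spanning kinase panel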
Mitogen-activated protein kinase kinase kinase kinase 5, sequence (Q9Y4K4 whole entry): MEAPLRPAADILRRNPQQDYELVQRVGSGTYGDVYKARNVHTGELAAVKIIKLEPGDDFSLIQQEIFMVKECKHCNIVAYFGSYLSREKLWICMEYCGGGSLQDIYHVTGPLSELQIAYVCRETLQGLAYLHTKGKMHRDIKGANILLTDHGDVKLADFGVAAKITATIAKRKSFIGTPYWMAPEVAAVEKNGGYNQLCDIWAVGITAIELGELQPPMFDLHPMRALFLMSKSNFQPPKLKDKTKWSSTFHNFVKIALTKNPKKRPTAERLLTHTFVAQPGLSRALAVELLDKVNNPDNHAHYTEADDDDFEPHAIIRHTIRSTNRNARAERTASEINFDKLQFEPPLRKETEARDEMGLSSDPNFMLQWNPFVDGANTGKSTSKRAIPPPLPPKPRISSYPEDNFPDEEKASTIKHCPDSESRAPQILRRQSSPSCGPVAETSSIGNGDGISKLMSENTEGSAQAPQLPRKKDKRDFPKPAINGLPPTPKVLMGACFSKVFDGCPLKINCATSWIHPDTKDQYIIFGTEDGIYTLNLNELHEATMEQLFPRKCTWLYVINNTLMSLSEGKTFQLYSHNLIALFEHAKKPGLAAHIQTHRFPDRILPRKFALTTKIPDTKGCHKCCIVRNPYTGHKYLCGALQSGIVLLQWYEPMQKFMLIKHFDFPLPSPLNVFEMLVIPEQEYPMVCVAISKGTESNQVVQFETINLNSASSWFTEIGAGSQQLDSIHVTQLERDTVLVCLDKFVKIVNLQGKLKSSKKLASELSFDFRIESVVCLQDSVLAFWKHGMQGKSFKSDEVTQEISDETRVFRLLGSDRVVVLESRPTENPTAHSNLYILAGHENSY

[20] = molecular target: Mitogen-activated protein kinase 13 (Homo sapiens, UniProt O15264); assay type: functional

Structure (SMILES): COC(=O)CCS(=O)(=O)c1nc(-c2ccccc2)cc(C(F)(F)F)n1
IC50 [1]: 3.45 µM (not active)
IC50 [2]: 3.08 µM (active)
IC50 [3]: 28.4 µM (not active)

Structure (SMILES): O=C(O)c1ccc(NC2=C(Cl)C(=O)c3ccccc3C2=O)cc1
IC50 [4]: 10.8 µM (not active)

Structure (SMILES): O=C(O)c1ccc2c3c(ncnc13)-c1ccccc1C2=O
EC50 [5]: 13.4 µM (active)
IC50 (Bcl-2-related protein A1): > 100 µM (not active)
IC50 (14-3-3 protein gamma): > 50 µM (not active)
IC50 (Protein Rev): 9.78 µM (active)
EC50 [6]: 34.8 µM (active)

Structure (SMILES): CCOC(=O)c1c2c(n(Cc3ccccc3)c1C)C(=O)C(=O)c1ccccc1-2
AC50 [7]: 6.77 µM (active)
AC50 [8]: 5.03 µM (active)
AC50 [9]: 5.84 µM (active)
CC50 [10]: 0.87 µM (active)
AC50 (Paired box protein Pax-8): 1.98 µM (active)

Ki [11]: > 3.16 µM (inactive)
Ki (Activin receptor type-1): 0.316 µM (active)
Ki [12]: > 2 µM (inactive)
Ki [13]: > 7.94 µM (inactive)
Ki (Misshapen-like kinase 1): 0.2 µM (active)
Ki [14]: > 2.51 µM (inactive)
Ki [15]: > 10 µM (inactive)
Structure (SMILES): Cc1ccc2nccc(NC(=O)Nc3cccc(C(F)(F)F)n3)c2c1

Structure (SMILES): COc1cc2c(cc1F)C(c1ccccc1Cl)=Nc1c(n[nH]c1C)N2 [RG-1530]
Ki [16]: 0.126 µM (active)
Ki [17]: 0.631 µM (active)
Ki (LIM domain kinase 1): 0.501 µM (active)
Ki [18]: > 6.31 µM (inactive)
Ki [19]: > 2.51 µM (inactive)
Ki [20]: > 7.94 µM (inactive)
